Test results published in US12428396B2, “Fused pyridine ring derivative, preparation method therefor, and pharmaceutical use thereof” (priority 2019, dated 2025).
Read-outs that look alike come from different tables or passages of the source.

Experiments:
[1] = Monkey pharmacokinetic study (iv, plasma LC/MS/MS); format: in vivo, cynomolgus monkeys; conditions: cynomolgus monkey, intravenous injection, 1 mg/kg
Method: Taking cynomolgus monkeys as test animals and the drug concentrations in monkey plasma at various times after intravenous injection (iv) of the compounds of Example 1-1 and Positive Control Example 1 were measured by using LC/MS/MS method. The pharmacokinetic performance in cynomolgus monkeys of the compounds of the present disclosure was studied and the pharmacokinetic profile thereof was evaluated.
6 non-naïve cynomolgus monkeys (999M-004, medicilon) with 2-5 kg, every 3 of which were in one group.
(§1) A certain amount of the compounds was weighed, 5% volume of DMSO, 30% PG, 30% PEG400 and 35% volume of normal saline were added, and the reaction mixture was subjected to vortex ultrasonic stirring for uniform mixing to give a clean administration solution at a concentration of 0.5 mg/mL.
Monkeys were intravenously injected with the compounds after fasting overnight, at a dose of 1.0 mg/kg and a volume of 2 mL/kg.
The compound of Example 1-1/Positive Control Example 1 was intravenously injected to monkeys, and 1 mL of blood was collected through femoral vein before administration and at 5 min, 0.25 h, 0.5 h, 1.0 h, 2.0 h, 4.0 h, 8.0 h, 12.0 h, 24 h, 32 h, 48 h, 56 h and 72 h after administration, respectively, and placed in EDTA-K2 anticoagulant blood collection tubes, plasma was centrifuged (centrifugal force: 2200 g, centrifugal time: 10 min, 2-8° C.), and stored at −80° C., and food intake was resumed 3 h after administration.

[2] = Beagle pharmacokinetic study (ig/sc/iv, plasma LC/MS/MS); format: in vivo, beagles; conditions: for AUC(0-t) / half-life / Cmax: dog, plasma; for AUC(0-t): read-out: Area under curve AUC0-72; for half-life: read-out: Half life T½ (converted); for Cmax: read-out: Plasma concentration Cmax
Method: Taking beagles as test animals, and the drug concentrations in dog plasma at various times after intragastric administration (ig)/subcutaneous injection (sc)/intravenous injection (iv) administration of the compound of Example 1-1 and Positive Control Example 1 were measured by using LC/MS/MS method. The pharmacokinetic performance in beagles of the compounds of the present disclosure was studied and the pharmacokinetic profile thereof was evaluated.
18 non-naïve beagles (999M-004, medicilon) with 7-12 kg, every 3 of which were in one group.
The intragastric administration group: a certain amount of the compounds was weighed, ethanol with a volume of 5% of the final volume, 20% PG, 45% PEG300 and 30% deionized water were added (the pH was adjusted to be about 2 with 0.01 N HCl), and the reaction mixture was subjected to ultrasonic stirring for uniform mixing to give an administration solution at a concentration of 0.8 mg/mL.
The subcutaneous injection administration group: a certain amount of the compounds was weighed, 2% aqueous poloxamer 188 solution with a proper volume was added, and the reaction mixture was subjected to ultrasonic stirring for uniform mixing to give a suspension administration solution at a concentration of 200 mg/mL.
as §1, with “The intravenous administration group: a” for “A”, “an” for “a clean”
Beagles were intragastrically administered with the compounds after fasting overnight, at a dose of 4.0 mg/kg and a volume of 5.0 mL/kg.
Beagles were subcutaneously injected with the compounds after fasting overnight, at a dose of 6.0 mg/kg and a volume of 0.03 mL/kg.
Beagles were intravenously injected with the compounds after fasting overnight, at a dose of 1.0 mg/kg and a volume of 2 mL/kg.
Beagles were intragastrically administered with the compound of Example 1-1/Positive Control Example 1, and 1 mL of blood was collected from the orbit before administration and at 0.25 h, 0.5 h, 1.0 h, 2.0 h, 4.0 h, 6.0 h, 8.0 h, 12.0 h, 24 h, 32 h, 48 h, 56 h and 72 h after administration, respectively, and placed in EDTA-K2 anticoagulant blood collection tubes, plasma was centrifuged (centrifugal force: 2200 g, centrifugation time: 10 min, 2-8° C.), and stored at −80° C., and food intake was resumed 3 h after administration.
The compound of Example 1-1/Positive Control Example 1 was subcutaneously injected to beagles, and 1 mL of blood was collected before administration and at 1.0 h, 3.0 h, 8.0 h, 24 h, 48 h, 72 h, 96 h, 168 h, 336 h, 432 h and 504 h after administration, respectively, and placed in EDTA-K2 anticoagulant blood collection tubes, plasma was centrifuged (centrifugal force: 2200 g, centrifugation time: 10 min, 2-8° C.), and stored at −80° C., and food intake was resumed 3 h after administration.
The content of the compound to be tested in the plasma of beagles was determined after the intragastric administration of the compounds at different concentrations: 20 μL of the plasma in beagles at each time after administration was taken, 200 μL of methanol containing internal standard (100 ng/mL) was added, the reaction mixture was subjected to vortex mixing for 1 min, and centrifuged for 7 min (centrifugal force: 18000 g), and 1 μL of the supernatant was taken from the plasma sample for LC/MS/MS analysis. […]

[3] = po, intragastric administration, 4 mg/kg
[4] = sc, subcutaneous injection, 6 mg/kg

## CC(C)(C#Cc1ccc(-c2ccc(Cl)c3c(NS(C)(=O)=O)nn(CC(F)(F)F)c23)c([C@H](Cc2cc(F)cc(F)c2)NC(=O)Cn2nc(C(F)(F)F)c3c2C(F)(F)[C@@H]2C[C@H]32)n1)S(C)(=O)=O [Positive Control Example 1, N—((S)-1-(3-(4-chloro-3-(methylsulfonamido)-1-(2,2,2-trifluoroethyl)-1H-indazol-7-yl)-6-(3-methyl-3-(methylsulfonyl)but-1-yn-1-yl)pyridin-2-yl)-2-(3,5-difluorophenyl)ethyl)-2-((3bS,4aR)-5,5-difluoro-3-(trifluoromethyl)-3b,4,4a,5-tetrahydro-1H-cyclopropa[3,4]cyclopenta[1,2-c]pyrazol-1-yl)acetamide, reference compound]
[1]
  Clearance CLz/F: 7.8 mL/min/kg
[1]; plasma, read-out: Area under curve AUC0-72
  AUC(0-t): 2130 ng·h/mL
[2]; intravenous injection, 1 mg/kg
  AUC(0-t): 14700 ng·h/mL
  half-life: 13.7 h
  Cmax: 1110 ng/mL
  Clearance CLz/F: 1.1 mL/min/kg
[2]; [3]
  AUC(0-t): 11200 ng·h/mL
  half-life: 23 h
  Cmax: 414 ng/mL
[2]; [4]
  AUC(0-t): 17700 ng·h/mL
  Cmax: 54.6 ng/mL
